Measurements reported in patent publication US10758501B2, “Use of histone acetyltransferase inhibitor amidoximes as anti-proliferative agents” (Texas Woman's University, priority 2017, dated 2020).
Values joined by “and” are separate entries in the source; they are usually repeats but may differ in a detail not shown here. Identical values can stand only once. Like-named read-outs stand apart in the source and are kept apart here.

Legend:
[1] = test system: MCF-7 (breast adenocarcinoma); test: MTS growth inhibition assay, MCF-7; type: cell-based, human
Protocol: (§1) In Table 1, the various compounds listed were tested for induction of death in various malignant human cell lines and were compared to the commercial HAT inhibitor garcinol (0.2-500 μM). Specifically, Table 1 describes the summary of the growth inhibitory effect (in μM) of nine novel bisamidoximes on six malignant cell lines, as measured by MTS assay. MTS assay is a colorimetric based cytotoxicity assay that determines the number of viable cells. The numbers in the table represent Growth Inhibition GI50 (±standard deviation), which is the concentration of the drug where 50% of the cells are killed. Garcinol, a known HAT inhibitor, was used as a positive control. The cell lines used were: HCT-116 (colorectal carcinoma), DU-145 (prostate carcinoma), SK-OV-3 (ovarian adenocarcinoma), HLF-a (lung epidermoid carcinoma), MCF-7 & MDA-MB-231 (breast adenocarcinoma) and NHDF (normal human dermal fibroblasts). The cells were treated with compounds JJMB 1-9 for 48 hrs (MCF-7 for 72 hrs) at various concentrations ranging from 0.2 μM to 500 μM. One-way ANOVA was performed to assess the differences between the groups. Differences in means between control and treatment groups were analyzed by post-hoc Dunnett's test, p<0.05. Data is reported as the mean ±SD, n =3. […] The compounds tested (JJMB5, JJMB6, JJMB7, and JJMB9) could efficiently kill several malignant cell-lines in concentration range of micromolars. (See Table 1). […] From these tests it is clear that the compounds affected several cells lines of the three major types of cancers: breast, lung, and colon.
(§2) Combination studies performed on human breast cancer cell line MCF-7 and human colon cancer cell line HCT 116 were measured by MTS assay. The cells were treated with novel bisamidoximes JJMB 5, 7, and 9, for 48 hours (72 hours for MCF-7), individually or in combination. Growth Inhibition (GI50) was measured. *—Indicates a significant difference when the drugs were used in combination compared to when the drugs were used individually as determined by one-way ANOVA, p≤0.05.
as §2, with “studies of bisamidoximes and cisplatin were” for “studies”, “MCF-7,” for “MCF-7 and”, “HCT-116, and murine mammary malignant cell lines” for “HCT 116 were”, “combination with cisplatin.” for “combination.”, “combination with cisplatin” for “combination”

[2] = test system: HCT-116 (colorectal carcinoma); test: MTS growth inhibition assay, HCT-116; type: cell-based, human
Protocol: as §1, with “colon. […]” for “colon.”
as §2, with “studies of bisamidoximes and cisplatin were” for “studies”, “MCF-7,” for “MCF-7 and”, “HCT-116, and murine mammary malignant cell lines” for “HCT 116 were”, “combination with cisplatin.” for “combination.”, “combination with cisplatin” for “combination”

[3] = test system: HLF-a (lung epidermoid carcinoma); test: MTS growth inhibition assay, HLF-a; type: cell-based; conditions: Homo sapiens, 48 hrs, 0.2-500 μM, mean ±SD n=3, read-out: Growth Inhibition GI50 (±standard deviation), Lung (HLF-A)
Protocol: as §1

[4] = MTS growth inhibition assay, NHDF; type: cell-based; conditions: NHDF (normal human dermal fibroblasts), 0.2-500 μM, read-out: Growth Inhibition GI50 (±standard deviation), Normal (NHDF)
Protocol: as §1

[5] = test system: MDA-MB-231 (breast adenocarcinoma); test: MTS growth inhibition assay, MDA-MB-231; type: cell-based; conditions: Homo sapiens, 48 hrs, 0.2-500 μM, mean ±SD n=3, read-out: Growth Inhibition GI50 (±standard deviation), Breast (MDA-MB-231)
Protocol: as §1

[6] = test system: SK-OV-3 (ovarian adenocarcinoma); test: MTS growth inhibition assay, SK-OV-3; type: cell-based; conditions: Homo sapiens, 48 hrs, 0.2-500 μM, mean ±SD n=3, read-out: Growth Inhibition GI50 (±standard deviation), Ovarian (SKOV-3)
Protocol: as §1

[7] = test system: DU-145 (prostate carcinoma); test: MTS growth inhibition assay, DU-145; type: cell-based; conditions: Homo sapiens, 48 hrs, 0.2-500 μM, mean ±SD n=3, read-out: Growth Inhibition GI50 (±standard deviation), Prostate (DU-145)
Protocol: as §1

[8] = Maximum tolerated dose in mice, IP; conditions: mouse, in vivo, BALB/c strain, 5 consecutive days, two days break, another 5 days
Protocol: (§3) At the next stage, we needed to determine whether the mice would tolerate the drugs, or in other words, what would be the maximum tolerated dose (MTD) of each of the bisamidoximes. The three bisamidoximes JJMB5, JJMB7, and JJMB9, as well as a control group of only the vehicle (the solvent used to dissolve the drugs) were injected intraperitoneally (IP) to mice. The protocol included injection of the desired concentration of bisamidoxime over 5 consecutive days, two days of break, and another cycle of 5 successive days of injections.

[9] = test system: murine mammary carcinoma cells 4T1; test: Growth inhibition of murine mammary cancer cell line 4T1; type: cell-based; conditions: Mus musculus; 4T1 cells, single drugs; read-out: growth inhibition 50% (GI50) on 4T1 cells
[10] = test system: EpH4 cells; test: Sensitivity of EpH4 cells to bisamidoximes; type: cell-based; conditions: in vitro cell culture
Protocol: The efficacy of killing malignant cells in mice and slowing down the tumors or eradicating them can be indicative to these compounds' efficacy in humans. To check if the bisamidoximes are potent in mice, breast cancer cells were identified that could be implanted in female mice mammary fat pads. The identified cells were tested to see if they are sensitive to bisamidoximes in vitro (in tube/cell culture).
as §3

[11] = test system: TSA-induced hyperacetylation; test: Reversion of HDAC-inhibitor (TSA)-induced hyperacetylation; type: cell-based, human; conditions: HCT-116, listed as JJM6
Protocol: To further understand the mechanism of action of the four active compounds (JJMB5, JJMB6, JJMB7, and JJMB9), we performed several experiments that are summarized in Table 2. All the assays were performed on HCT-116 (a colorectal carcinoma), since all of the four specific potent drugs could induce death of these cells. […] Another HAT, GCN5, was not inhibited by any of the compounds. JJMB5, JJM6 and JJMB9 could reverse the activity of an HDAC inhibitor (TSA); thus the hyperacetylation induced by TSA could be reversed by these compounds.
This is another indication that the three compounds, JJMB5, JJMB6, and JJMB9 are HAT inhibitors.

[12] = test system: 4T1 breast carcinoma cells implanted in mammary fat pad; test: 4T1 mammary carcinoma tumor volume in BALB/c mice; type: in vivo, mouse; conditions: 4T1 in mammary fat pad, two 5-day cycles
Protocol: The bisamidoxime JJMB7 was studied to see if the compound can lower the rate of tumor growth and the number and size of metastases in mice. […] FIG. 2 depicts a graph of mammary tumor volumes in JJMB7 treated and untreated control BALB/c mice. In the experiment, six-week-old BALB/c mice were implanted with 10,000 4T1 breast carcinoma cells in the mammary fat pad (MFP). […] JJMB7 was administered for five consecutive days, followed by a two day break, and another five consecutive days of injections. Mice were weighed every day and observed for signs of pain and discomfort. Tumors were visible 7 days after implantation, and tumor dimensions were measured, and volumes were calculated until day-24, when mice were euthanized. A One-Way Repeated Measures ANOVA was performed to determine a statistical significance (p≤0.05).
The murine mammary carcinoma 4T1 cells were implanted in the mammary fat pad of BALB/c female mice (10,000 cells per mice) and a day later we started a protocol of two 5-day cycles (with 2 days break) of chemotherapy delivered IP. The amidoximes were delivered at their MTD level—JJMB5 with 0.26 mg/kg, and JJMB9 with 0.78 mg/kg. One-Way Repeated-Measure ANNOVA was performed to show the significance (p≤0.05, n=10).

[13] = Mouse Liver Microsomes stability; type: in vitro ADME; conditions: Mouse Liver Microsomes (FIG. 5); read-out: t1/2 in Mouse Liver Microsomes
[14] = 48 hours, individually or in combination with cisplatin, read-out: Growth Inhibition (GI50), HCT-116, cisplatin combination study
[15] = Homo sapiens, MCF7, 72 hours, 0.2-500 μM, mean ±SD n=3, * = highly purified, more potent batches, read-out: Growth Inhibition GI50 (±standard deviation), Breast (MCF-7), 72 hours
[16] = Homo sapiens, HCT-116, 48 hrs, 0.2-500 μM, mean ±SD n=3, * = highly purified, more potent batches, read-out: Growth Inhibition GI50 (±standard deviation), Colon (HCT-116)
[17] = Homo sapiens, MCF7, 72 hours, individually or in combination with cisplatin, read-out: Growth Inhibition (GI50), MCF-7, cisplatin combination study
[18] = Homo sapiens, MCF7, 72 hours, individually or in combination, read-out: Growth Inhibition (GI50), MCF-7, bisamidoxime combination study

SMILES	GI50 ([1]; 72 hours, individually or in combination with cisplatin, read-out: Growth Inhibition (GI50), MCF-7, cisplatin combination study)	GI50 [2, 14]	GI50 [1, 15] [µM]	GI50 [3] [µM]	GI50 at 48 h [4] [µM]	GI50 [5] [µM]	GI50 [6] [µM]	GI50 [7] [µM]	GI50 [2, 16] [µM]	MTD [8] [mg/kg]	GI50 [9] [µM]	sensitivity of EpH4 cells to bisamidoximes [10]	GI50 [1, 17] [µM]	GI50 [1, 18] [µM]	Reversion of HDAC-inhibitor-induced hyperacetylation [11]	mammary carcinoma tumor volume (FIG. 2) ([12]; BALB/c mice, 1.56 mg/kg IP, until day-24)	half-life [13] [min]	breast cancer tumor volume (FIG. 3) ([12]; BALB/c female mice, 0.78 mg/kg IP, p≤0.05, n=10)
N.N.[Cl][Pt][Cl] [Cisplatin, cisplatin, reference compound]	40.8 µM and 48.5 µM	68.6 µM and 73 µM and 66.3 µM	–	–	–	–	–	–	–	–	–	–	–	–	–	–	–	–
C=C(C)[C@@H](CC=C(C)C)C[C@@]12C[C@@H](CC=C(C)C)C(C)(C)[C@@](CC=C(C)C)(C(=O)C(C(=O)c3ccc(O)c(O)c3)=C1O)C2=O [Garcinol, garcinol, reference compound]	–	–	55 ± 7	27 ± 4	> 500	44 ± 4	43 ± 5	55 ± 7	39 ± 8	–	–	–	–	–	–	–	–	–
Cc1ccc(/C(=N/O)NCCCN/C(=N\O)c2ccc(C)cc2)cc1 [JJMB5]	–	19.3 ± 2.4 µM	33.2	335 ± 4	> 500	125 ± 4	> 500	> 500	8.5	0.26	6.3 ± 2.3	highly sensitive	33.2 ± 6	28.2 ± 7.1	–	–	–	–
Cc1ccc(/C(=N/O)NCCCCN/C(=N\O)c2ccc(C)cc2)cc1 [JJMB6]	–	–	> 500	> 500	> 500	> 500	> 500	> 500	17 ± 4	–	–	–	–	–	could reverse	–	–	–
Cc1ccc(/C(=N/O)NCCN/C(=N\O)c2ccc(C)cc2)cc1 [JJMB7]	–	16.2 ± 2 µM	> 500	275 ± 3	> 500	85 ± 3	> 500	> 500	6.2	1.56	14.7 ± 6.3	highly sensitive	–	–	–	significantly reduce	–	–
Cc1ccc(/C(=N/O)NCCCN(C)CCCN/C(=N\O)c2ccc(C)cc2)cc1 [JJMB9]	–	–	8.5	40 ± 7	> 500	> 500	> 500	> 500	16	0.78	33.3 ± 2.4	highly sensitive	8.5 ± 2.5	5.3 ± 2.7	–	–	13	significantly reduced
